Source: patent publication US7238694B2, “Rifamycin imino derivatives effective against drug-resistant microbes” (Cumbre Pharmaceuticals, Inc., priority 2004, dated 2007)
Values after ≈ are worked out from the molar mass of the structure shown.

Legend:
Assay type in all cases: cell-based
[1] = tested on: Staphylococcus aureus ATCC29213; assay: MIC, microbroth dilution (NCCLS); conditions: rifS strain, Cation-Adjusted Mueller-Hinton Broth, 37° C., read-out: MIC
[2] = tested on: Staphylococcus aureus MT1222 gyrA^A116E grlB^S80F; assay: microbe, parasite or virus in culture; conditions: cipR strain, Cation-Adjusted Mueller-Hinton Broth, 37° C., read-out: MIC
[3] = tested on: Staphylococcus epidermidis ATCC12228; assay: MIC, microbroth dilution (NCCLS); conditions: rifS strain, Cation-Adjusted Mueller-Hinton Broth, 37° C., read-out: MIC
[4] = tested on: Streptococcus pneumoniae ATCC6303; assay: MIC, microbroth dilution (NCCLS); conditions: rifS strain, THY Broth with 1 mg/mL catalase, 5% CO2, 37° C., read-out: MIC
[5] = tested on: Streptococcus pyogenes ATCC19615; assay: MIC, microbroth dilution (NCCLS); conditions: rifS strain, THY Broth, 37° C., read-out: MIC
[6] = tested on: Staphylococcus aureus ATCC29213 rpoB^H418Y; assay: microbe, parasite or virus in culture; conditions: Staphylococcus aureus, ATCC29213; rifR strain; Cation-Adjusted Mueller-Hinton Broth, 37° C.; read-out: MIC
[7] = tested on: Haemophilus influenzae ATCC10211; assay: MIC, microbroth dilution (NCCLS); conditions: rifS strain, BHI Broth with NAD and hematin, 37° C., read-out: MIC

SMILES | MIC [1] [µg/mL] | MIC [2] [µg/mL] | MIC [3] [µg/mL] | MIC [4] [µg/mL] | MIC [5] [µg/mL] | MIC [6] [µg/mL] | MIC [7] [µg/mL]
COc1c(N2CCN(/N=C/C3=C4NC(=O)/C(C)=C\C=C\[C@H](C)[C@H](O)[C@@H](C)[C@@H](O)[C@@H](C)[C@H](OC(C)=O)[C@H](C)[C@@H](OC)/C=C/O[C@@]5(C)Oc6c(C)c(O)c(c(c6C5=O)C3=O)C4=O)C(C)C2)c(F)cc2c(=O)c(C(=O)O)cn(C3CC3)c12 (mixture of isomers) [Example 12, (R/S)-3-[4-(3-Carboxy-1-cyclopropyl-6-fluoro-8-methoxy-4-oxo-1,4-dihydroquinolin-7-yl)-2-methylpiperazin-1-yl-aminomethylenyl]rifamycin S] | 0.008 to 1 (≈ 0.0073 to 0.912 µM) | 0.008 to 0.125 (≈ 0.0073 to 0.114 µM) | 0.008 to 0.1 (≈ 0.0073 to 0.0912 µM) | 0.008 to 0.06 (≈ 0.0073 to 0.0547 µM) | 0.008 to 0.03 (≈ 0.0073 to 0.0274 µM) | 0.06 to 16 (≈ 0.0547 to 14.6 µM) | 0.125 to 4 (≈ 0.114 to 3.65 µM)
CO[C@H]1/C=C/O[C@@]2(C)Oc3c(C)c(O)c4c(O)c(c(/C=N/N(C)C5CCN(c6cc7c(cc6F)c(=O)c(C(=O)O)cn7C6CC6)C5)c(O)c4c3C2=O)NC(=O)/C(C)=C\C=C\[C@H](C)[C@H](O)[C@@H](C)[C@@H](O)[C@@H](C)[C@H](OC(C)=O)[C@@H]1C (mixture of isomers) [Example 15, (R/S)-3-[1-(3-Carboxy-1-cyclopropyl-6-fluoro-4-oxo-1,4-dihydroquinolin-7-yl)-pyrrolidin-3-yl-N′-methylhydrazinomethylenyl]rifamycin SV] | 0.008 to 1 (≈ 0.00749 to 0.936 µM) | 0.008 to 0.125 (≈ 0.00749 to 0.117 µM) | 0.008 to 0.1 (≈ 0.00749 to 0.0936 µM) | 0.008 to 0.06 (≈ 0.00749 to 0.0562 µM) | 0.008 to 0.03 (≈ 0.00749 to 0.0281 µM) | 0.06 to 16 (≈ 0.0562 to 15 µM) | 0.125 to 4 (≈ 0.117 to 3.74 µM)
COc1c(N2CCC(C3(N(C)C4CCN(/N=C/c5c6c(O)c7c(O)c(C)c8c(c7c5O)C(=O)[C@@](C)(O/C=C/[C@H](OC)[C@@H](C)[C@@H](OC(C)=O)[C@H](C)[C@H](O)[C@H](C)[C@@H](O)[C@@H](C)/C=C/C=C(/C)C(=O)N6)O8)CC4)CC3)C2)c(F)cc2c(=O)c(C(=O)O)cn(C3CC3)c12 (mixture of isomers) [Example 16] | 0.008 to 1 (≈ 0.00655 to 0.819 µM) | 0.008 to 0.125 (≈ 0.00655 to 0.102 µM) | 0.008 to 0.1 (≈ 0.00655 to 0.0819 µM) | 0.008 to 0.06 (≈ 0.00655 to 0.0491 µM) | 0.008 to 0.03 (≈ 0.00655 to 0.0246 µM) | 0.06 to 16 (≈ 0.0491 to 13.1 µM) | 0.125 to 4 (≈ 0.102 to 3.27 µM)
CO[C@H]1/C=C/O[C@@]2(C)Oc3c(C)c(O)c4c(O)c(c(/C=N/N5CCC(N(C)C6(C7CCN(c8c(F)cc9c(=O)c(C(=O)O)cn(C%10CC%10)c9c8Cl)C7)CC6)CC5)c(O)c4c3C2=O)NC(=O)/C(C)=C\C=C\[C@H](C)[C@H](O)[C@@H](C)[C@@H](O)[C@@H](C)[C@H](OC(C)=O)[C@@H]1C (mixture of isomers) [Example 17, (R/S)-3-{[4-({1-[1-(3-Carboxy-8-chloro-1-cyclopropyl-6-fluoro-4-oxo-1,4-dihydro-quinolin-7-yl)-pyrrolidin-3-yl]-cyclopropyl}-methyl-amino)-piperidin-1-ylimino]-methyl}-rifamycin SV] | 0.008 to 1 (≈ 0.00653 to 0.816 µM) | 0.008 to 0.125 (≈ 0.00653 to 0.102 µM) | 0.008 to 0.1 (≈ 0.00653 to 0.0816 µM) | 0.008 to 0.06 (≈ 0.00653 to 0.0489 µM) | 0.008 to 0.03 (≈ 0.00653 to 0.0245 µM) | 0.06 to 16 (≈ 0.0489 to 13.1 µM) | 0.125 to 4 (≈ 0.102 to 3.26 µM)
COc1c(N2CCC(N/N=C/c3c4c(O)c5c(O)c(C)c6c(c5c3O)C(=O)[C@@](C)(O/C=C/[C@H](OC)[C@@H](C)[C@@H](OC(C)=O)[C@H](C)[C@H](O)[C@H](C)[C@@H](O)[C@@H](C)/C=C/C=C(/C)C(=O)N4)O6)C2)c(F)cc2c(=O)c(C(=O)O)cn(C3CC3)c12 (mixture of isomers) [Example 21, (R/S)-3-[1-(3-Carboxy-1-cyclopropyl-6-fluoro-8-methoxy-4-oxo-1,4-dihydroquinolin-7-yl)-pyrrolidinyl-3-hydrazino-methylenyl]-rifamycin SV] | 0.008 to 1 (≈ 0.00738 to 0.922 µM) | 0.008 to 0.125 (≈ 0.00738 to 0.115 µM) | 0.008 to 0.1 (≈ 0.00738 to 0.0922 µM) | 0.008 to 0.06 (≈ 0.00738 to 0.0553 µM) | 0.008 to 0.03 (≈ 0.00738 to 0.0277 µM) | 0.06 to 16 (≈ 0.0553 to 14.8 µM) | 0.125 to 4 (≈ 0.115 to 3.69 µM)
COc1c(N2CCC(N(C)/N=C/c3c4c(O)c5c(O)c(C)c6c(c5c3O)C(=O)[C@@](C)(O/C=C/[C@H](OC)[C@@H](C)[C@@H](OC(C)=O)[C@H](C)[C@H](O)[C@H](C)[C@@H](O)[C@@H](C)/C=C/C=C(/C)C(=O)N4)O6)C2)c(F)cc2c(=O)c(C(=O)O)cn(C3CC3)c12 (mixture of isomers) [Example 22, (R/S)-3-[1-(3-Carboxy-1-cyclopropyl-6-fluoro-8-methoxy-4-oxo-1,4-dihydroquinolin-7-yl)-pyrrolidinyl-3-methylhydrazino-methylenyl]-rifamycin SV] | 0.008 to 1 (≈ 0.00728 to 0.911 µM) | 0.008 to 0.125 (≈ 0.00728 to 0.114 µM) | 0.008 to 0.1 (≈ 0.00728 to 0.0911 µM) | 0.008 to 0.06 (≈ 0.00728 to 0.0546 µM) | 0.008 to 0.03 (≈ 0.00728 to 0.0273 µM) | 0.06 to 16 (≈ 0.0546 to 14.6 µM) | 0.125 to 4 (≈ 0.114 to 3.64 µM)
COc1c(N2CCN(/N=C/c3c4c(O)c5c(O)c(C)c6c(c5c3O)C(=O)[C@@](C)(O/C=C/[C@H](OC)[C@@H](C)[C@@H](OC(C)=O)[C@H](C)[C@H](O)[C@H](C)[C@@H](O)[C@@H](C)/C=C/C=C(/C)C(=O)N4)O6)C(C(=O)O)C2)c(F)cc2c(=O)c(C(=O)O)cn(C3CC3)c12 (mixture of isomers) [Example 23, (R/S)-3-[4-(3-Carboxy-1-cyclopropyl-6-fluoro-8-methoxy-4-oxo-1,4-dihydroquinolin-7-yl)-3-carboxy-piperazin-1-yl-aminomethylenyl]-rifamycin SV] | 0.008 to 1 (≈ 0.00709 to 0.886 µM) | 0.008 to 0.125 (≈ 0.00709 to 0.111 µM) | 0.008 to 0.1 (≈ 0.00709 to 0.0886 µM) | 0.008 to 0.06 (≈ 0.00709 to 0.0532 µM) | 0.008 to 0.03 (≈ 0.00709 to 0.0266 µM) | 0.06 to 16 (≈ 0.0532 to 14.2 µM) | 0.125 to 4 (≈ 0.111 to 3.55 µM)
